Each molecule was assayed against T1, Recombinant human Plk-1 (6×His) (Homo sapiens, UniProt P53350) (assay: PLK enzyme assay (33P-γ-ATP incorporation into biotinylated casein, SPA beads)). Conditions: 10 ng PLK enzyme, 90 minutes at room temperature, 0.5 μmol of ATP, casein substrate; read-out: Inhibition of PLK-1 IC50.
T1 construct: 6×His; made in house; host or cells: baculovirus-infected insect cells (Hi5)
Type: biochemical
Description: Recombinant human Plk-1 (6×His) was purified from baculovirus-infected insect cells (Hi5).
10 ng of (produced in a recombinant manner and purified) PLK enzyme is incubated for 90 minutes at room temperature with biotinylated casein and 33P-γ-ATP as a substrate in a volume of 15 μl in 384-well Greiner small-volume microtiter plates (final concentrations in the buffer: 660 ng/ml of PLK; 0.7 μmol of casein, 0.5 μmol of ATP incl. 400 nCi/ml of 33P-γ-ATP; 10 mmol of MgCl2, 1 mmol of MnCl2; 0.01% NP40; 1 mmol of DTT, protease inhibitors; 0.1 mmol of Na2VO3 in 50 mmol of HEPES, pH 7.5). To complete the reaction, 5 μl of stop solution (500 μmol of ATP; 500 mmol of EDTA; 1% Triton X100; 100 mg/ml of streptavidin-coated SPA beads in PBS) is added. After the microtiter plate is sealed by film, the beads are sedimented by centrifuging (10 minutes, 1500 rpm). The incorporation of 33P-γ-ATP in casein is intended as a measurement of enzyme activity by β-counting.
Test substances are used in various concentrations (0 μmol, as well as in the range of 0.01-30 μmol). The final concentration of the solvent dimethyl sulfoxide is 1.5% in all batches.

T1 sequence (P53350 whole entry): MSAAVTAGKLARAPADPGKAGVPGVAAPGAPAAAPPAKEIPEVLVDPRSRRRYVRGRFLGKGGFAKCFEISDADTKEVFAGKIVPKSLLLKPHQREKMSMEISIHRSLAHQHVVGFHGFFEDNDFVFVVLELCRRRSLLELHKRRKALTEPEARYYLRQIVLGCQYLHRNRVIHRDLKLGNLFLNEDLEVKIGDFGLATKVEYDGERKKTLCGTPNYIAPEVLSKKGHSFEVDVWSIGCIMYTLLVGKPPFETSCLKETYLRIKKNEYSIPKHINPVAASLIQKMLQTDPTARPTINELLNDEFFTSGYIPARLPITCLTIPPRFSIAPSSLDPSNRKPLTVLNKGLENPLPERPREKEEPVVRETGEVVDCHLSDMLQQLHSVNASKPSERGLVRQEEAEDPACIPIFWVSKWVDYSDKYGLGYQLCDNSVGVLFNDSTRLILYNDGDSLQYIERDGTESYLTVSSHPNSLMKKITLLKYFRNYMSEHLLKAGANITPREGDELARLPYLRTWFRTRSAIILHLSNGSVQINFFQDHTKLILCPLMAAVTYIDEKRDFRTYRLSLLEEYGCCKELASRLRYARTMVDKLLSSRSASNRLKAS

Row | Structure (SMILES) | IC50 [nM]
1 | CCOC(=O)C(C#N)=c1sc(=CNc2ccccc2C(=O)O)c(=O)n1CC [Example 26] | 6300
2 | CCOC(=O)C(C#N)=c1sc(=CNc2ccc(S(C)(=O)=O)cc2)c(=O)n1CC [Example 22] | 510
3 | CCOC(=O)C(C#N)=c1sc(=CNc2ccc(Cl)c(C(=O)O)c2)c(=O)n1CC [Example 33] | 420
4 | CCn1c(=C(C#N)C(=O)O)sc(=CNc2ccccc2)c1=O (mixture of isomers) [Example 12, (E or Z)-Cyano-(3-ethyl-4-oxo-5-(E/Z)-phenylaminomethylene-thiazolidin-2-ylidene)-acetic acid] | 100
5 | CCOC(=O)C(C#N)=c1sc(=CNc2cccc(S(N)(=O)=O)c2)c(=O)n1CC [Example 53] | 460
6 | CCOC(=O)C(C#N)=c1sc(=CNc2cccc(C(=O)NC)c2)c(=O)n1CC [Example 52] | 260
7 | CCOC(=O)C(C#N)=c1sc(=CNc2cccc(C(=O)O)c2)c(=O)n1CC [Example 24] | 230
8 | CCOC(=O)C(C#N)=c1sc(=CNc2cc(F)c(F)cc2C(=O)O)c(=O)n1CC [Example 37] | 3500
9 | CCOC(=O)C(C#N)=c1sc(=CNc2ccc(NC(C)=O)cc2)c(=O)n1CC [Example 58] | 270
10 | CCOC(=O)C(C#N)=c1sc(=CNC(=O)Nc2ccccc2)c(=O)n1CC [Example 45] | 680
11 | CCOC(=O)C(C#N)=c1sc(=CNc2ccc(Br)cc2C(=O)O)c(=O)n1CC [Example 36] | 1800
12 | CCOC(=O)C(C#N)=c1sc(=CNc2ccc(C(=O)O)cc2O)c(=O)n1CC [Example 30] | 250
13 | CCOC(=O)C(C#N)=c1sc(=CNc2ccc(C)cc2C(=O)O)c(=O)n1CC [Example 38] | 3000
14 | CCOC(=O)C(C#N)=c1sc(=CNc2cccc(CO)c2)c(=O)n1CC [Example 60] | 290
15 | CCOC(=O)C(C#N)=c1sc(=CN)c(=O)n1CC (mixture of isomers) [Example 11, (E or Z)-(5-(E/Z)-Aminomethylene-3-ethyl-4-oxo-thiazolidin-2-ylidene)-cyanoacetic acid ethyl ester] | 400
16 | CCOC(=O)C(C#N)=c1sc(=CNc2ccc(C(=O)O)cc2C)c(=O)n1CC [Example 40] | 1700
17 | CCOC(=O)C(C#N)=c1sc(=CNc2cccc(NC(C)=O)c2)c(=O)n1CC [Example 59] | 180
18 | CCOC(=O)C(C#N)=c1sc(=CNc2cc(Cl)ccc2C(=O)O)c(=O)n1CC [Example 32] | 1700
19 | CCn1c(=CC#N)sc(=CNc2ccccc2)c1=O (mixture of isomers) [Example 21, (E or Z)-(3-Ethyl-4-oxo-5-(E/Z)-phenylaminomethylene-thiazolidin-2-ylidene)-acetonitrile] | 230
20 | CCOC(=O)C(C#N)=c1sc(=CNc2ccc(F)cc2C(=O)O)c(=O)n1CC [Example 35] | 2800
21 | CCOC(=O)C(C#N)=c1sc(=CNc2cc(C(=O)O)ccc2O)c(=O)n1CC [Example 28] | 2300
22 | CCOC(=O)C(C#N)=c1sc(=CNc2cccc(C(N)=O)c2)c(=O)n1CC [Example 48] | 270
23 | CCOC(=O)C(C#N)=c1sc(=CNc2ccc(Cl)cc2C(=O)O)c(=O)n1CC [Example 31] | 1900
24 | CCOC(=O)C(C#N)=c1sc(=CNc2ccc(S(N)(=O)=O)cc2)c(=O)n1CC [Example 50] | 240
25 | CCOC(=O)C(C#N)=c1sc(=CNc2cccc(C)c2C(=O)O)c(=O)n1CC [Example 39] | 5900
26 | CCOC(=O)C(C#N)=c1sc(=CNc2ccc(C(N)=O)cc2)c(=O)n1CC (mixture of isomers) [Example 10, (E or Z)-{5-(E/Z)-[(4-Carbamoyl-phenylamino)-methylene]-3-ethyl-4-oxo-thiazolidin-2-ylidene}-cyanoacetic acid ethyl ester] | 200

What follows are molecules tested on human MaTu breast tumor cells (assay: Proliferation assay (crystal violet staining)). Conditions: 96 h, incubated for 4 days with test substances, read-out: Inhibition of the Tumor Cell Proliferation (MaTu) IC50.
Type: cell-based
Description: Cultivated human MaTu breast tumor cells were flattened out at a density of 5000 cells/measuring point in a 96-well multititer plate in […] of the corresponding growth medium. After 24 hours, the cells of one plate (zero-point plate) were colored with crystal violet (see below), while the medium of the other plates was replaced by fresh culture medium […], to which the test substances were added in various concentrations (0 μm, as well as in the range of 0.01-30 μm; the final concentration of the solvent dimethyl sulfoxide was 0.5%). The cells were incubated for 4 days in the presence of test substances. The cell proliferation was determined by coloring the cells with crystal violet: the cells were fixed by adding 20 μl/measuring point of an 11% glutaric aldehyde solution for 15 minutes at room temperature. After three washing cycles of the fixed cells with water, the plates were dried at room temperature. The cells were colored by adding 100 μl/measuring point of a 0.1% crystal violet solution (pH was set at 3 by adding acetic acid). After three washing cycles of the colored cells with water, the plates were dried at room temperature. The dye was dissolved by adding 100 μl/measuring point of a 10% acetic acid solution. The extinction was determined by photometry at a wavelength of 595 nm. The change of cell growth, in percent, was calculated by standardization of the measured values to the extinction values of the zero-point plate (=0%) and the extinction of the untreated (0 μm) cells (=100%).

Row | Structure (SMILES) | IC50 [nM]
27 | CCn1c(=C(C#N)C(=O)O)sc(=CNc2ccccc2)c1=O (mixture of isomers) [Example 12, (E or Z)-Cyano-(3-ethyl-4-oxo-5-(E/Z)-phenylaminomethylene-thiazolidin-2-ylidene)-acetic acid] | 2000
28 | CCOC(=O)C(C#N)=c1sc(=CN)c(=O)n1CC (mixture of isomers) [Example 11, (E or Z)-(5-(E/Z)-Aminomethylene-3-ethyl-4-oxo-thiazolidin-2-ylidene)-cyanoacetic acid ethyl ester] | 15000
29 | CCOC(=O)C(C#N)=c1sc(=CNc2ccc(C(N)=O)cc2)c(=O)n1CC (mixture of isomers) [Example 10, (E or Z)-{5-(E/Z)-[(4-Carbamoyl-phenylamino)-methylene]-3-ethyl-4-oxo-thiazolidin-2-ylidene}-cyanoacetic acid ethyl ester] | 4000
